From PubChem BioAssay (NCI)
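How tested: cells in 96-well plates exposed to compound for 48 hours at five concentrations. Abbreviation: GI50, concentration required for 50% inhibition of growth. Definition used: TGI = concentration required for complete inhibition of growth.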

tested on: HCT-15 colon; experiment: NCI-60 cell line screen, 48 h

SMILES	TGI [µM]	GI50 [µM]
COc1ccc(CN2CC(C)(C)C2=O)c(OC)c1	> 100	
[N-]=[N+]=C1C(=O)NN=C1c1ccccc1	> 100	
COc1ccc2c3c([nH]c2c1[N+](=O)[O-])C(C)N(C)CC3 (stereo not drawn)	> 100	
CCOC(=O)N[C@@H]1C(CC(=O)OC)O[C@H]2OC(C)(C)O[C@H]21 (stereo partly drawn)	> 100	
Cc1cc(NC(=S)SCc2ccc(F)cc2)c([N+](=O)[O-])cc1C	46.4	
C=C(C)CCN[Si](c1ccccc1)(c1ccccc1)C(C)(C)C	48.1	
Cc1cc2ncnn2cc1Nc1ncc2c(n1)n(C1CCOCC1)c(=O)n2C	> 100	8.23
CN(Cc1ccccc1)C(=O)c1ccccc1C(=O)O	> 100	
CNC(=S)/N=C(\N)N(C)C	> 100	
CC(=O)C1Cn2c(nc3ccccc32)C[Se]1 (stereo not drawn)	20.5	
COC(=O)Nc1nc2ccc(C3(c4ccc(F)cc4)OCCO3)cc2[nH]1	> 100	0.178
c1cnn(CN(Cn2cccn2)Cn2cccn2)c1	> 100	

tested on: SK-MEL-28 melanoma; experiment: NCI-60 cell line screen, 48 h

SMILES	GI50 [µM]	TGI [µM]
CC1(C)C(=O)/C(=C\c2cccnc2)C[C@]2(C)[C@H]3CC[C@@H]4[C@H]5[C@H](C(=O)/C=C/c6cccnc6)CC[C@]5(C(=O)O)CC[C@@]4(C)[C@]3(C)CC[C@@H]12	2.16	4.39
COc1cc2ncnc(-n3ncc4cc(NC(=O)Nc5ccccc5)ccc43)c2cc1OC	1.38	4.33
Cn1cc(C2(C)CC(C)(C)c3c2n(C)c2ccccc32)c2ccccc21 (stereo not drawn)		> 100
COc1ccc(C(=O)c2cc(OC)c(OC)c(OC)c2)cc1/C=C/C(=O)c1ccc(F)cc1	2.48	7.25
COC(=O)C(Cc1nc2ccccc2[nH]c1=O)C(NO)C(=O)Nc1c(Cl)cc([N+](=O)[O-])cc1Cl (stereo not drawn)		> 100
COC(=O)C(CC(=O)Nc1ccc(C)cc1)C(=O)C(=O)Nc1c(C(C)C)cccc1C(C)C (stereo not drawn)		> 100
CCOC(=O)C(=O)Nc1ccccc1CC		> 100
CN1CCc2nc(N)nc(-c3nc(N)nc4c3CN(C)CC4)c2C1		> 100
COc1ccc(-c2cc(-c3cc(C)cc(Br)c3O)no2)cc1		> 100
COc1c(C(=O)/C=C/c2ccccc2)c(O)cc2occc12	7.03	20.7
O=C(N/N=C/c1cc(Br)ccc1O)N/N=C/c1cc(Br)ccc1O		> 100
CCCN(CCC)C(=O)c1c([N+](=O)[O-])cc(C(F)(F)F)cc1[N+](=O)[O-]		> 100
COc1cc2[nH]c3c(c2cc1OC)CCN[C@]31CC[C@]2(CC3c4c(cc(OC)c(O)c42)CCN3C)C[C@H]1OC (stereo partly drawn)		36.6
c1ccc(C2N3CCCCC3[C@@H]3c4[nH]c5ccccc5c4CCN23)nc1 (stereo partly drawn)		> 100
C=CCCCCC/C=C\[C@@H](O)C#CC#C/C=C/CO	0.867	> 100
COc1ccc(CN2CC(C)(C)C2=O)c(OC)c1		> 100
Nc1ccccc1/C(O)=C1/CCOC1=O		> 100
CCCCNC1CCCCC[C@H]1O (stereo partly drawn)		> 100
[N-]=[N+]=C1C(=O)NN=C1c1ccccc1		> 100
COc1ccc2c3c([nH]c2c1[N+](=O)[O-])C(C)N(C)CC3 (stereo not drawn)		> 100
CCOC(=O)N[C@@H]1C(CC(=O)OC)O[C@H]2OC(C)(C)O[C@H]21 (stereo partly drawn)		> 100
Cc1cc(NC(=S)SCc2ccc(F)cc2)c([N+](=O)[O-])cc1C		> 100
C=C(C)CCN[Si](c1ccccc1)(c1ccccc1)C(C)(C)C		42.7
CC12OC(C(=O)C13CC3)C1C(=O)c3ccc4c(ccc5ccccc54)c3C(=O)C12 (stereo not drawn)	66.3	> 100
Cc1cc2ncnn2cc1Nc1ncc2c(n1)n(C1CCOCC1)c(=O)n2C	5.71	64.1
CNC(=S)/N=C(\N)N(C)C		> 100
CC(=O)C1Cn2c(nc3ccccc32)C[Se]1 (stereo not drawn)		8.75
COC(=O)Nc1nc2ccc(C3(c4ccc(F)cc4)OCCO3)cc2[nH]1	0.769	> 100
c1cnn(CN(Cn2cccn2)Cn2cccn2)c1		> 100

tested on: OVCAR-5 ovarian; experiment: NCI-60 cell line screen, 48 h

SMILES	GI50 [µM]	TGI [µM]
CC1(C)C(=O)/C(=C\c2cccnc2)C[C@]2(C)[C@H]3CC[C@@H]4[C@H]5[C@H](C(=O)/C=C/c6cccnc6)CC[C@]5(C(=O)O)CC[C@@]4(C)[C@]3(C)CC[C@@H]12	2.44	4.88
COc1cc2ncnc(-n3ncc4cc(NC(=O)Nc5ccccc5)ccc43)c2cc1OC	1.24	13.8
COc1ccc(C(=O)c2cc(OC)c(OC)c(OC)c2)cc1/C=C/C(=O)c1ccc(F)cc1	2.67	11.5
COC(=O)C(CC(=O)Nc1ccc(C)cc1)C(=O)C(=O)Nc1c(C(C)C)cccc1C(C)C (stereo not drawn)		> 100
CCOC(=O)C(=O)Nc1ccccc1CC		> 100
CN1CCc2nc(N)nc(-c3nc(N)nc4c3CN(C)CC4)c2C1		> 100
COc1ccc(-c2cc(-c3cc(C)cc(Br)c3O)no2)cc1		88.9
COc1c(C(=O)/C=C/c2ccccc2)c(O)cc2occc12	5.67	19.8
O=C(N/N=C/c1cc(Br)ccc1O)N/N=C/c1cc(Br)ccc1O		> 100
CCCN(CCC)C(=O)c1c([N+](=O)[O-])cc(C(F)(F)F)cc1[N+](=O)[O-]		> 100
COc1cc2[nH]c3c(c2cc1OC)CCN[C@]31CC[C@]2(CC3c4c(cc(OC)c(O)c42)CCN3C)C[C@H]1OC (stereo partly drawn)		> 100
c1ccc(C2N3CCCCC3[C@@H]3c4[nH]c5ccccc5c4CCN23)nc1 (stereo partly drawn)		> 100
C=CCCCCC/C=C\[C@@H](O)C#CC#C/C=C/CO	> 100	> 100
Nc1ccccc1/C(O)=C1/CCOC1=O		> 100
CCCCNC1CCCCC[C@H]1O (stereo partly drawn)		> 100
[N-]=[N+]=C1C(=O)NN=C1c1ccccc1		> 100
COc1ccc2c3c([nH]c2c1[N+](=O)[O-])C(C)N(C)CC3 (stereo not drawn)		> 100
CCOC(=O)N[C@@H]1C(CC(=O)OC)O[C@H]2OC(C)(C)O[C@H]21 (stereo partly drawn)		> 100
Cc1cc(NC(=S)SCc2ccc(F)cc2)c([N+](=O)[O-])cc1C		54.7
CC12OC(C(=O)C13CC3)C1C(=O)c3ccc4c(ccc5ccccc54)c3C(=O)C12 (stereo not drawn)	30.1	> 100
Cc1cc2ncnn2cc1Nc1ncc2c(n1)n(C1CCOCC1)c(=O)n2C	5.81	> 100
CN(Cc1ccccc1)C(=O)c1ccccc1C(=O)O		> 100
CC(=O)C1Cn2c(nc3ccccc32)C[Se]1 (stereo not drawn)		10.4
COC(=O)Nc1nc2ccc(C3(c4ccc(F)cc4)OCCO3)cc2[nH]1	0.614	> 100
